{
  "source": "paper PMC11500415",
  "about": "“Chemical inhibition of stomatal differentiation by perturbation of the master-regulatory bHLH heterodimer via an ACT-Like domain” (Nature Communications, 2024)",
  "target": "T1, SCRM-MUTE (Arabidopsis thaliana, UniProt Q9M8K6)",
  "T1 construct": "MUTE (1-202); GST (N, cleaved yes); made in house; host or cells: E. coli BL21",
  "T1 sequence (Q9M8K6 1-202)": "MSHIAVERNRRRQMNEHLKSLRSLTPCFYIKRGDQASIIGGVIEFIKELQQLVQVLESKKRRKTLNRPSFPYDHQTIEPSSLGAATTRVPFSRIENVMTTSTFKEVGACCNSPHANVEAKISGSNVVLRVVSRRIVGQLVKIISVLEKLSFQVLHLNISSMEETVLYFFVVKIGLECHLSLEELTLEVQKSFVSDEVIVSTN",
  "test": "ITC of SCRM binding to MUTE in presence of compound",
  "design": "species or system A. thaliana",
  "settings": "for n of SCRM_MUTE binding: without 0.96; for -T△S of SCRM_MUTE binding: without 25.3 ± 0.5; for △G of SCRM_MUTE binding: without -5.2 ± 0.2; for △H of SCRM_MUTE binding: without -30.5 ± 0.6",
  "description": "A. thaliana SCRM (1-494), ΔNSPCH (98-364), MUTE (1-202), ΔNFAMA (190-414), MUTEΔC (1-114), MUTER133A_R134A, MUTEE162A_E163A, MUTER133A_R134A_E162A_E163A, SCRM-ACTL (405-494), MUTE-ACTL (114-202), SPCH-ACTL (285-364), FAMA-ACTL (306-414), MUTE_ACTLR133A_R134A, MUTE_ACTLE162A_E163A, MUTE_ACTLR133A_R134A_E162A_E163A were cloned into pGEX-4T-1 vector with an N-terminal GST tag and a thrombin cleavage sequence. For protein expression, the constructs were transformed into E. coli strain BL21. For each transformant, a single colony was selected and incubated in 10 ml LB liquid media. The overnight-incubated E. coli suspensions were transferred to 1 L LB medium and incubated at 37 °C for around 2 h until the OD600 reached 0.4–0.6. The isopropyl β-D-1-thiogalactopyranoside ([…] of final concentration) was added to the cultures and the strains were incubated at 22 °C for a further 18 h. GST-fused proteins were purified using glutathione agarose resin. The soluble portion of the cell lysate was loaded onto a GST-Sepharose column. Nonspecifically bound proteins were removed by washing the column with 20 mM Tris pH 8.0, 200 mM NaCl. The bound GST-fused protein was eluted with 10 mm glutathione and 20 mM Tris pH 8.0, 200 mM NaCl. The GST-fused proteins were exchanged with phosphate-buffered saline buffer, and then the solution was treated with 50 μg of thrombin for 10–12 h at 16 ^οC. The GST portion of the protein was cleaved during thrombin digestion, and then the whole solution was reloaded onto the glutathione S-transferase column to obtain pure protein. The purified proteins were further purified by gel filtration on a Superdex-200 (GE) column using fast protein liquid chromatography and phosphate buffer (pH 7.2) as the eluent. The purity of the protein was checked by SDS-PAGE. For detailed lists of oligo DNA and plasmid information, see Supplementary Tables 5, 6, respectively.\nBinding of the small molecule Stomidazolone (3) to SCRM, MUTE, SPCH, FAMA, MUTEΔC, MUTE_ACTL, SCRM_ACTL, SPCH_ACTL and FAMA_ACTL, MUTER133A_R134A, MUTEE162A_E163A, MUTER133A_R134A_E162A_E163A, as well as SCRM binding to MUTE in the presence and absence of Stomidazolone (3) / AYSJ1059 (5) /AYSJ1061 (6) was characterized at 30 °C using a Malvern PEAQ-ITC microcalorimeter. All the protein samples were dialyzed overnight using PBS buffer containing 2% DMSO and 1 mM DTT. Stomidazolone was dissolved in PBS buffer containing 2% DMSO and 1 mM DTT. Titrations were performed by injecting 1 × 0.5-μL and 12 × 3-μL or 1 × 0.75-μL and 18 × 2-μL or 1 × 0.2-μL and 25 × 1.3-μL aliquots of 1 mM Stomidazolone / AYSJ1059 / AYSJ1061 to 5-30 μM of protein in PBS buffer pH 7.4, containing 2% DMSO and 1 mM DTT. All titrations were carried out at least twice. The raw data were corrected using buffer and protein controls and analyzed using the software supplied by the manufacturer. See Supplementary Table 3 for details.",
  "data": [
    {"compound": "Cc1ccc(C2(NS(=O)(=O)c3ccccc3)N=C(c3ccccc3)C(=O)N2S(=O)(=O)c2ccccc2)cc1", "note": "(stereo not drawn) [AYSJ1059]", "values": [
      {"measurement": "n of SCRM_MUTE binding", "value": 1.0},
      {"measurement": "-T△S of SCRM_MUTE binding", "value": "27.2 ± 0.6"},
      {"measurement": "△G of SCRM_MUTE binding", "value": "-6.3 ± 0.2"},
      {"measurement": "△H of SCRM_MUTE binding", "value": "-33.5 ± 0.6"}
    ]},
    {"compound": "O=C1C(c2ccccc2)=NC(NS(=O)(=O)c2ccccc2)(c2ccc(Br)cc2)N1S(=O)(=O)c1ccccc1", "note": "(stereo not drawn) [AYSJ1061]", "values": [
      {"measurement": "n of SCRM_MUTE binding", "value": 1.1},
      {"measurement": "-T△S of SCRM_MUTE binding", "value": "35.3 ± 0.6"},
      {"measurement": "△G of SCRM_MUTE binding", "value": "-10.2 ± 0.2"},
      {"measurement": "△H of SCRM_MUTE binding", "value": "-45.5 ± 0.6"}
    ]},
    {"compound": "O=C1C(c2ccccc2)=NC(NS(=O)(=O)c2ccccc2)(c2ccccc2)N1S(=O)(=O)c1ccccc1", "note": "(stereo not drawn) [Stomidazolone]", "values": [
      {"measurement": "n of SCRM_MUTE binding", "value": 0.91},
      {"measurement": "-T△S of SCRM_MUTE binding", "value": "5.2 ± 0.4"},
      {"measurement": "△G of SCRM_MUTE binding", "value": "-2.3 ± 0.2"},
      {"measurement": "△H of SCRM_MUTE binding", "value": "-7.5 ± 0.3"}
    ]}
  ]
}
